In brackets after ≈: the same amount, converted by molar mass.
Tests used:
[1] = tested on: Stachybotrys chartarum (DSMZ 2144); conditions: DSMZ 2144, pH 7
[2] = lipid monolayer at air-water interface on PBS pH 7.4, peptide 1 µM, initial pressure 10-30 mN/m, extrapolated to delta pressure 0
Method: (§1) Peptide–lipid interaction was evaluated using reconstituted lipid monolayer at the air–water interface as previously described. Pure prokaryotic and eukaryotic lipids used were: POPC (1-palmitoyl-2-oleoyl-glycero-3-phosphocholine), POPE (1-palmitoyl-2-oleoyl-sn-glycero-3-phosphoethanolamine), POPG (1-palmitoyl-2-oleoyl-sn-glycero-3-phospho-(1’-rac-glycerol), and cardiolipin, all from Avanti Polar Lipid (Alabama, USA). LTA (Lipoteichoic acid from B. subtilis) was obtained from Invivogen SAS (Toulouse, France). Pure lipids were reconstituted in chloroform:methanol (2:1, v:v) at 1 mg/mL and stored at −20 °C under nitrogen. The interaction and insertion of the ENN and BEA into lipids were evaluated through the measurement of their critical pressure of insertion as previously described. Briefly, lipids were spread using a 50 µL Hamilton’s syringe at the surface of 800 µL of sterile PBS creating a lipid monolayer at the air–water interface. Lipids were added until the surface pressure reached the desired value. After 5–10 min of incubation allowing evaporation of the solvent and stabilization of the initial surface pressure, 8 µL of ENN or BEA diluted in sterile PBS at 100 µM were injected into the 800 µL sub-phase of PBS under the lipid monolayer (pH 7.4, volume 800 µL) using a 10 µL Hamilton syringe giving a final concentration of peptides of 1 µM, preliminary experiments having shown that this concentration gave optimal insertion. The variation of the surface pressure caused by peptide injection was then continuously monitored using a fully automated microtensiometer (µTROUGH SX, Kibron Inc., Helsinki, Finland) until reaching equilibrium (maximal surface pressure increase being usually obtained after 15–25 min). The critical pressure of insertion of each peptide was determined by changing the initial pressure of lipid monolayer (from 10 and 30 mN/m) and measuring the variation of pressure caused by the insertion of the peptide. The critical pressure of insertion of each peptide in a particular lipid was determined graphically and calculated as the theoretical value of initial pressure of lipid monolayer not permissive to peptide insertion, i.e., causing a variation of pressure equal to 0 mN/m.

[3] = tested on: Acinetobacter baumannii (CIP 110431)
[4] = tested on: Candida albicans (DSMZ 10697); conditions: DSMZ 10697, 24 h, pH 7
[5] = tested on: Staphylococcus aureus (ATCC CRM-6538P)
A. ochraceus (DSMZ 824) = conditions: DSMZ 824, pH 7
[6] = set-up: species or system B. subtilis; conditions: lipid monolayer on PBS pH 7.4, peptide 1 µM, extrapolated to delta pressure 0; -- = absence of interaction
Method: as §1

[7] = tested on: N87 (human gastric cell line); conditions: 48 h
C. perfringens = type: cell-based, Clostridium perfringens
[8] = tested on: Aspergillus flavus (DSMZ 1959); conditions: DSMZ 1959, pH 7
[9] = tested on: Penicillium verrucosum (DSMZ 12639); conditions: DSMZ 12639, pH 7
[10] = tested on: Fusarium graminearum (DSMZ 1095); conditions: DSMZ 1095, pH 7
[11] = tested on: Methicillin-resistant S. aureus strain MRSA USA300
A. niger (ATCC 9142) = conditions: ATCC 9142, pH 7
[12] = tested on: Escherichia coli (ATCC 8739)
[13] = tested on: Vancomycin-resistant Enterococcus faecalis (DSMZ 13591)
[14] = tested on: HEK (human normal epidermal keratinocytes); conditions: 48 h

| Structure (SMILES) | MIC, S. chartarum [1] | critical pressure of insertion, POPC [2] | critical pressure of insertion, POPE [2] | MIC, A. baumannii [3] | MIC, C. albicans [4] | MIC, S. aureus [5] | MIC, A. ochraceus (A. ochraceus (DSMZ 824)) | critical pressure of insertion, LTA [6] | IC50 [7] | Known/possible target (C. perfringens) | Observed Morphology (C. perfringens) | MIC, A. flavus [8] | MIC, P. verrucosum [9] | MIC, F. graminearum [10] | MIC, S. aureus MRSA [11] | MIC, A. niger (A. niger (ATCC 9142)) | MIC, E. coli [12] | MIC, E. faecalis [13] | IC50 [14] |
| --- | --- | --- | --- | --- | --- | --- | --- | --- | --- | --- | --- | --- | --- | --- | --- | --- | --- | --- | --- |
| CC(C)[C@H]1C(=O)O[C@H](C(C)C)C(=O)N(C)[C@@H](C(C)C)C(=O)O[C@H](C(C)C)C(=O)N(C)[C@@H](C(C)C)C(=O)O[C@H](C(C)C)C(=O)N1C [ENN B] | >100 µM | 32.92 mN/m | 30.15 mN/m | >100 µM | 6.25 µM (≈ 4 µg/mL) | >100 µM | >100 µM | 38.9 mN/m | 1700 ± 100 nM | Protein biosynthesis | • Some cell elongation (1.5–2 times compared to control) • DNA condensed in 1–4 circles per cells | >100 µM | >100 µM | >100 µM | >100 µM | >100 µM | >100 µM | >100 µM | 54200 ± 35300 nM |
| CC[C@H](C)[C@H]1C(=O)O[C@H](C(C)C)C(=O)N(C)[C@@H]([C@@H](C)CC)C(=O)O[C@H](C(C)C)C(=O)N(C)[C@@H](C(C)C)C(=O)O[C@H](C(C)C)C(=O)N1C [ENN A1] | >100 µM | 38.06 mN/m | 34.38 mN/m | >100 µM | 1.5 µM (≈ 1 µg/mL) | 12.5 to 25 µM | >100 µM | 53.71 mN/m | 3 ± 2 nM | RNA biosynthesis | • No cell elongation • DNA condensed in one filament crossing the cells | >100 µM | >100 µM | 50 µM (≈ 33.4 µg/mL) | 12.5 to 25 µM | >100 µM | >100 µM | 6.25 µM (≈ 4.17 µg/mL) | 2300 ± 100 nM |
| CC[C@H](C)[C@H]1C(=O)O[C@H](C(C)C)C(=O)N(C)[C@@H](C(C)C)C(=O)O[C@H](C(C)C)C(=O)N(C)[C@@H](C(C)C)C(=O)O[C@H](C(C)C)C(=O)N1C [ENN B1] | >100 µM | 36.19 mN/m | 31.87 mN/m | >100 µM | 3.12 µM (≈ 2.04 µg/mL) | 25 µM (≈ 16.3 µg/mL) | >100 µM | 43.62 mN/m | 8 ± 8 nM | Protein biosynthesis | • Some cell elongation (1.5–2 times compared to control) • DNA condensed in 1–4 circles per cells | >100 µM | >100 µM | 25 µM (≈ 16.3 µg/mL) | 25 µM (≈ 16.3 µg/mL) | >100 µM | >100 µM | 12.5 µM (≈ 8.17 µg/mL) | 3300 ± 500 nM |
| CC[C@H](C)[C@H]1C(=O)O[C@H](C(C)C)C(=O)N(C)[C@@H]([C@@H](C)CC)C(=O)O[C@H](C(C)C)C(=O)N(C)[C@@H]([C@@H](C)CC)C(=O)O[C@H](C(C)C)C(=O)N1C [ENN A] | >100 µM | 40.28 mN/m | 38.12 mN/m | >100 µM | 1.5 µM (≈ 1.02 µg/mL) | 6.25 to 12.5 µM | >100 µM | 56.1 mN/m | 10 ± 10 nM | RNA biosynthesis | • Some cell elongation • DNA condensed in one filament crossing the cells | >100 µM | >100 µM | 25 µM (≈ 17 µg/mL) | 6.25 to 12.5 µM | >100 µM | >100 µM | 3.12 µM (≈ 2.13 µg/mL) | 2000 ± 100 nM |
